# In article PMC7225226, “Fluorescence labeling of a NaV1.7-targeted peptide for near-infrared nerve visualization” (EJNMMI Research, 2020):
# Several values for one entry are separate records, joined by “and”; a condition that tells them apart may be missing. Identical values can stand only once.
# How the values were obtained:
# hNaV1.3 = molecular target: T1, hNaV1.3 (Homo sapiens, UniProt Q9NY46); assay: Whole-cell patch-clamp, HEK293 cells stably expressing hNaV1.3; assay type: cell-based; details: QPatch 16x automated whole-cell patch-clamp, holding potential -60 mV, five concentrations (2 nM to 10 μM), 0.1% BSA, pH 7.4, ~22 °C; each point average of 3–11 cells
# T1 construct: host or cells: HEK293
# Method: (§1) HEK293 cells stably expressing the human NaV channel β1 subunit (hNaVβ1) in combination with the α subunit hNaV1.1, hNaV1.2, hNaV1.3, hNaV1.4, hNaV1.5, hNaV1.6, or hNaV1.7 (Scottish Biomedical, Glasgow, UK) were cultured in DMEM/F-12 media (1:1), supplemented with 10% fetal bovine serum, […] geneticin, and […] non-essential amino acids (all reagents from Invitrogen) at 37 °C and in 5% CO2.
# (§2) Whole-cell patch-clamp experiments were performed at room temperature using a QPatch 16x automated electrophysiology platform (Sophion Bioscience, Denmark) using 16-channel planar patch-chip plates (QPlates) with a patch-hole diameter of 1 μm and resistance of 2 MΩ. Whole-cell currents were filtered at 5 kHz (8-pole Bessel) and digitized at 25 kHz. A P4 online leak-subtraction protocol was used with non-leak-subtracted currents acquired in parallel. The extracellular solution was 2 mM CaCl2, 1 mM MgCl2, 10 mM HEPES, 4 mM KCl, and 145 mM NaCl at pH 7.4, and the intracellular solution was 140 mM CsF, 1 mM/5 mM EGTA/CsOH, 10 mM HEPES, and 10 mM NaCl at pH 7.3. Hs1a-FL were dissolved in extracellular solution with 0.1% bovine serum albumin (BSA). Concentration-response data were obtained using five concentrations of peptide (2 nM to 10 μM). […] IC50 values were determined from non-linear regression of concentration-response data using GraphPad Prism.
# neuronal sodium channels = assay: Affinity for neuronal sodium channels (summary statement); assay type: cell-based, human; details: automated patch-clamp, HEK293 cells
# Method: as §1, §2
# hNaV1.4 = molecular target: T2, hNaV1.4 (Homo sapiens, UniProt P35499); assay: Whole-cell patch-clamp, HEK293 cells stably expressing hNaV1.4; assay type: cell-based
# T2 construct: host or cells: HEK293
# T2 sequence (Q07699 19-218): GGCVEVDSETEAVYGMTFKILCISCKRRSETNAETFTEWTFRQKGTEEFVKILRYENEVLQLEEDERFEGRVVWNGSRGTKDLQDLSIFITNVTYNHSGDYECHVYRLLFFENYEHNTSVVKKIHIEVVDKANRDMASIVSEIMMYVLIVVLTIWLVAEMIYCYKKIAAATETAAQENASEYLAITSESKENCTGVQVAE
# T2 sequence (P35499 whole entry): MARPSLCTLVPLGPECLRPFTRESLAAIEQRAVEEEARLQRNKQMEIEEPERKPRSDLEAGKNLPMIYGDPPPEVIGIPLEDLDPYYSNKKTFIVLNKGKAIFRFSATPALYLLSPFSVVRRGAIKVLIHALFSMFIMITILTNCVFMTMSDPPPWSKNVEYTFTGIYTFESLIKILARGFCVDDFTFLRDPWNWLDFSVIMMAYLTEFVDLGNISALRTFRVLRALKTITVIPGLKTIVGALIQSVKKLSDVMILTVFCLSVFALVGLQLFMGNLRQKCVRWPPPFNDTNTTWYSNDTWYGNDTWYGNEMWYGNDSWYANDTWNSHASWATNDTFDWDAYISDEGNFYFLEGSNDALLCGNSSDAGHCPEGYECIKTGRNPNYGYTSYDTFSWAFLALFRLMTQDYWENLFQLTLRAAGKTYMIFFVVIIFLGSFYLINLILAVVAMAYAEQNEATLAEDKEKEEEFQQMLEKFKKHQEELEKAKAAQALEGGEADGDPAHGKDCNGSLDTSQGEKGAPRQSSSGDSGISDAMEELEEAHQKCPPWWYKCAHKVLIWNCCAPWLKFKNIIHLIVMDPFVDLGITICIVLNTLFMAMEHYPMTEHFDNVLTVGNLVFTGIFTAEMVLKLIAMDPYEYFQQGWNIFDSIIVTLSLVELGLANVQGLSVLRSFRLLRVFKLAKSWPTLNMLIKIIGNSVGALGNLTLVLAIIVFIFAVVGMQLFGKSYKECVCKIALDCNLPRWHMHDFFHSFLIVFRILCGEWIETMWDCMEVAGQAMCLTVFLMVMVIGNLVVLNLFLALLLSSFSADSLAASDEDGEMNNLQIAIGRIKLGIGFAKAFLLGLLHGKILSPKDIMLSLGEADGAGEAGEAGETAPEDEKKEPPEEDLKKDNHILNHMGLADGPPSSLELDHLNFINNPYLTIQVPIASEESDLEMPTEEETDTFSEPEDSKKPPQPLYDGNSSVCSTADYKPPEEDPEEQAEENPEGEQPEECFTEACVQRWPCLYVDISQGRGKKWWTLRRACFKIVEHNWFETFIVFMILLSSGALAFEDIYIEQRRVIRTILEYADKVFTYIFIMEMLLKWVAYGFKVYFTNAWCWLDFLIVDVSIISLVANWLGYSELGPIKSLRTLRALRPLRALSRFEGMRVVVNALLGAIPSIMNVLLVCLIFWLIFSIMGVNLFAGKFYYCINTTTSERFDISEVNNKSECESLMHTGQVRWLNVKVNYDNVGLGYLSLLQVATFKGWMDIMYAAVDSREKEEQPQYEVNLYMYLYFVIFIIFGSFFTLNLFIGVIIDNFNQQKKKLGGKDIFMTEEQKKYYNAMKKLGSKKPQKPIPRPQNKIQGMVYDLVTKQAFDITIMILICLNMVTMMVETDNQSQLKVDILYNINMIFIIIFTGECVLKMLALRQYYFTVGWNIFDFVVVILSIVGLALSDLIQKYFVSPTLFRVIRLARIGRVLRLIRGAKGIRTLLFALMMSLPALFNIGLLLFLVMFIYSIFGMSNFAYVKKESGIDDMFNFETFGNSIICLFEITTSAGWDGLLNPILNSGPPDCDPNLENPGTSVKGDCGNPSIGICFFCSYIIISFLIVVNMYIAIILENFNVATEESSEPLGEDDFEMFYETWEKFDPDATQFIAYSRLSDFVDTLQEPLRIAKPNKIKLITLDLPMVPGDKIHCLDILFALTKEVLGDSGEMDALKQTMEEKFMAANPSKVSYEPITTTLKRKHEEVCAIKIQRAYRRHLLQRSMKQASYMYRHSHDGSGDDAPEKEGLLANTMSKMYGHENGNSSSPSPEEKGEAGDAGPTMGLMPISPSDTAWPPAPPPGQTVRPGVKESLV
# Method: as §1, §2
# hNaV1.1 = molecular target: T3, hNaV1.1 (Homo sapiens, UniProt P35498); assay: Whole-cell patch-clamp, HEK293 cells stably expressing hNaV1.1; assay type: cell-based; details: QPatch 16x automated whole-cell patch-clamp, holding potential -60 mV, five concentrations (2 nM to 10 μM), 0.1% BSA, pH 7.4, ~22 °C; each point average of 3–11 cells
# T3 construct: host or cells: HEK293
# Method: as §1, §2
# hNaV1.2 = molecular target: T4, hNaV1.2 (Homo sapiens, UniProt Q99250); assay: Whole-cell patch-clamp, HEK293 cells stably expressing hNaV1.2; assay type: cell-based; details: QPatch 16x automated whole-cell patch-clamp, holding potential -65 mV, five concentrations (2 nM to 10 μM), 0.1% BSA, pH 7.4, ~22 °C; each point average of 3–11 cells
# T4 construct: host or cells: HEK293
# Method: as §1, §2
# hNaV1.5 = molecular target: T5, hNaV1.5 (Homo sapiens, UniProt Q14524); assay: Whole-cell patch-clamp, HEK293 cells stably expressing hNaV1.5; assay type: cell-based
# T5 construct: host or cells: HEK293
# T5 sequence (Q14524 whole entry): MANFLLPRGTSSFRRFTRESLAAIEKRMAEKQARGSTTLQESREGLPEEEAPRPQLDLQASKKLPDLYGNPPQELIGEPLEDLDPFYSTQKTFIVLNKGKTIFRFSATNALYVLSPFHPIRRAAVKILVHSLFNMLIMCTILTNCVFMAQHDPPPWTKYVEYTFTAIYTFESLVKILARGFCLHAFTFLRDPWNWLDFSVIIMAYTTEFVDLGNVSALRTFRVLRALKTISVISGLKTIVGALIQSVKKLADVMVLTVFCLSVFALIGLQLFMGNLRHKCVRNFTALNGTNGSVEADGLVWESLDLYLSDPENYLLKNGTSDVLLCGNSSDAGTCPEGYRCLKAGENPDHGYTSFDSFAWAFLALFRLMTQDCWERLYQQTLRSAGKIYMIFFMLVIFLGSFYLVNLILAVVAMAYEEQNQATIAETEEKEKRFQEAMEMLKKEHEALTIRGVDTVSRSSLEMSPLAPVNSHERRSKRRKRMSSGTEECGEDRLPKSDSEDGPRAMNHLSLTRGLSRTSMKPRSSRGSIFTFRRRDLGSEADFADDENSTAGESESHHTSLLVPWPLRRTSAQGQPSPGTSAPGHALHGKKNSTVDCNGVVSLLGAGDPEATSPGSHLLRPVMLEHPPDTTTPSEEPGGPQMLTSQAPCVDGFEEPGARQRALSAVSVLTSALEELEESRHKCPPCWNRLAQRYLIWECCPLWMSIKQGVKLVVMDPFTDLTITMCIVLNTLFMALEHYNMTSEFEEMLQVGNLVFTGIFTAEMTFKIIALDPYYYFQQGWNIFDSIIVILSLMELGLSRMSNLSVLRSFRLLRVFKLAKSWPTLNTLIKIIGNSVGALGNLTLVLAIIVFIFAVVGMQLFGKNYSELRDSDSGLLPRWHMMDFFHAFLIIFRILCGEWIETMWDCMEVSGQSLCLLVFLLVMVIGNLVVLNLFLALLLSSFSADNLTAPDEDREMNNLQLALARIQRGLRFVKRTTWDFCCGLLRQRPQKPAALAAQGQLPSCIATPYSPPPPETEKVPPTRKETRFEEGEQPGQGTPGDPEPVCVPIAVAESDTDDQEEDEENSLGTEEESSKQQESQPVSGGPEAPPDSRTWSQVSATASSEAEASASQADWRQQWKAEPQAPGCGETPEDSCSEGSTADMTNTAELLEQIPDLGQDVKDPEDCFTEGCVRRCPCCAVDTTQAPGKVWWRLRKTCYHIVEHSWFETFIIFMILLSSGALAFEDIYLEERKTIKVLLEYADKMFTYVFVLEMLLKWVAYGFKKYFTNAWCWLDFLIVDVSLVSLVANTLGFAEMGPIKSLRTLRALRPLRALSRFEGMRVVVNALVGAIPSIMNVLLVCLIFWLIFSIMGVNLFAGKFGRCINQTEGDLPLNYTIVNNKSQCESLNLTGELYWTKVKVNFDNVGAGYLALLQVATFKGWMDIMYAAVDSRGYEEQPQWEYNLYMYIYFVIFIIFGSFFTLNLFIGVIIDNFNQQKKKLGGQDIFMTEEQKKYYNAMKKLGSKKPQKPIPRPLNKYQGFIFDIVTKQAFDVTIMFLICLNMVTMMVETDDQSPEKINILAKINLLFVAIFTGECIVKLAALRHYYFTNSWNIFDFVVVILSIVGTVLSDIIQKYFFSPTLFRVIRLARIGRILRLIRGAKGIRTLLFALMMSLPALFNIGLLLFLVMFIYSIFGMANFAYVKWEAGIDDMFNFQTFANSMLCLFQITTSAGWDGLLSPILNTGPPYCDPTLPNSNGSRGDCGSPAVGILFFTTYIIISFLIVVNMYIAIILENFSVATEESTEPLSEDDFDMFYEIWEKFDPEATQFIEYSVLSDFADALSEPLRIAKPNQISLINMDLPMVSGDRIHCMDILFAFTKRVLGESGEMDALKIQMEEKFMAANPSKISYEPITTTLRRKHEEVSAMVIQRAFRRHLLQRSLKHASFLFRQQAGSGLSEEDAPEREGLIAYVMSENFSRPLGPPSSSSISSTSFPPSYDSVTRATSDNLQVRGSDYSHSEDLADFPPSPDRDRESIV
# Method: as §1, §2
# mouse sciatic nerve = assay: Epifluorescence imaging of resected sciatic nerves after intravenous injection; assay type: in vivo; details: 30 min post-injection
# Method: (§3) Female athymic nude mice (4–8 weeks old, athymic-nude (outbred) (stock#:088; Envigo, USA) were allowed to acclimatize at the MSKCC vivarium for 1 week with ad libitum food and water prior to the experimental procedure. For imaging experiments, animals were sacrificed 30 min post-tail vein injection of Hs1a-FL, Hs1a/Hs1a-FL, or PBS. All animal experiments were performed in accordance with institutional guidelines and approved by the MSKCC Institutional Animal Care and Use Committee, following the NIH guidelines for animal welfare.
# (§4) One group of animals was intravenously injected with Hs1a-FL (4 nmol, 45 μM of Hs1a-FL in 100 μL of PBS, n = 3). A second group of animals was injected with Hs1a and Hs1a-FL (Hs1a-FL, 45 μM, 4 nmol and Hs1a, 120 μM, 12 nmol in 100 μL PBS, n = 3) or PBS (n = 3). Animals were sacrificed 30 min post-injection and epifluorescence images obtained. Epifluorescence images of the right sciatic nerve (RSN) and left sciatic nerve (LSN) were obtained in situ from all the mice in the study. Epifluorescence images of the biodistribution included RSN, LSN, muscle, heart, kidney, liver, and brain and were acquired with an IVIS Spectrum imaging system (PerkinElmer) using a predetermined filter set (excitation = 710/45 nm, emission = 800–820 nm). […]
# (§5) Statistical analyses were performed using GraphPad Prism 8. […] All p values were calculated using an unpaired t test. […]
# nerve and muscle = assay: Nerve-to-muscle comparison, epifluorescence; assay type: in vivo, mouse
# Method: as §3, §4, §5
# [1] = Ex vivo epifluorescence biodistribution in organs; set-up: species or system mouse; details: 30 min post-injection
# Method: as §3
# One group of animals was intravenously injected with Hs1a-FL (4 nmol, 45 μM of Hs1a-FL in 100 μL of PBS, n = 3). A second group of animals was injected with Hs1a and Hs1a-FL (Hs1a-FL, 45 μM, 4 nmol and Hs1a, 120 μM, 12 nmol in 100 μL PBS, n = 3) or PBS (n = 3). Animals were sacrificed 30 min post-injection and epifluorescence images obtained. Epifluorescence images of the right sciatic nerve (RSN) and left sciatic nerve (LSN) were obtained in situ from all the mice in the study. Epifluorescence images of the biodistribution included RSN, LSN, muscle, heart, kidney, liver, and brain and were acquired with an IVIS Spectrum imaging system (PerkinElmer) using a predetermined filter set (excitation = 710/45 nm, emission = 800–820 nm). Autofluorescence was removed through spectral unmixing. Semiquantitative analysis of the Hs1a-FL signal was conducted by measuring the average radiant efficiency (in units of [p/s/cm^2/sr]/[μW/cm^2]) in regions of interest (ROIs) that were placed on all resected nerves and as well in all organs from the biodistribution under white light guidance.
# Statistical analyses were performed using GraphPad Prism 8. Unless otherwise stated, data points represent mean values, and error bars represent standard deviations of biological replicates. All p values were calculated using an unpaired t test. Statistical significance was considered for p values < 0.05 and as follows: ns = not significant, *p < 0.05, **p < 0.01, ***p < 0.001.
# NaV1.7 = assay: Binding to NaV1.7 in vivo post-intravenous injection, blocked by excess unlabeled Hs1a; set-up: species or system mouse
# Method: as §3
# For the confocal microscopy experiments, 5 μm cryosections of sciatic nerve tissues embedded in optimal cutting temperature compound (OCT) were used to determine the distribution and localization of Hs1a-FL from mice previously injected with the fluorescent agent Hs1a-FL (4 nmol, 45 μM of Hs1a-FL in 100 μL of PBS), the blocking solution Hs1a/Hs1a-FL (Hs1a-FL, 45 μM, 4 nmol and Hs1a 120 μM, 12 nmol in 100 μL PBS), or 100 μL of PBS. These resected nerves were incubated with Hoechst 33342 (20 μM, 1 nmol in 50 μL of PBS) to counterstain nuclei, which were subsequently embedded in Mowiol mounting medium. Fresh tissues were counterstained with Hoechst 33342 (20 μM, 1 nmol in 50 μL of PBS) and samples placed directly on a microscope slide for detection of the fluorescence signal of the fluorescent peptide. […]
# [2] = system: mouse sciatic nerve (NaV1.7); assay: Confocal microscopy of sciatic nerve after intravenous injection; assay type: in vivo; details: i.v. Hs1a-FL 4 nmol (45 μM in 100 μL PBS), with or without Hs1a 12 nmol (120 μM, 3-fold molar excess); 30 min post-injection; athymic nude mice
# Method: as §3
# For the confocal microscopy experiments, 5 μm cryosections of sciatic nerve tissues embedded in optimal cutting temperature compound (OCT) were used to determine the distribution and localization of Hs1a-FL from mice previously injected with the fluorescent agent Hs1a-FL (4 nmol, 45 μM of Hs1a-FL in 100 μL of PBS), the blocking solution Hs1a/Hs1a-FL (Hs1a-FL, 45 μM, 4 nmol and Hs1a 120 μM, 12 nmol in 100 μL PBS), or 100 μL of PBS. These resected nerves were incubated with Hoechst 33342 (20 μM, 1 nmol in 50 μL of PBS) to counterstain nuclei, which were subsequently embedded in Mowiol mounting medium. Fresh tissues were counterstained with Hoechst 33342 (20 μM, 1 nmol in 50 μL of PBS) and samples placed directly on a microscope slide for detection of the fluorescence signal of the fluorescent peptide.
# [3] = at concentrations up to 3 μM, automated patch-clamp
Compound,IC50 (hNaV1.3),affinity for neuronal sodium channels (neuronal sodium channels; ~22 °C),"IC50 range for neuronal NaV channels (neuronal sodium channels; NaV1.1, NaV1.2, NaV1.3, NaV1.6, NaV1.7)","IC50 (hNaV1.4; QPatch 16x automated whole-cell patch-clamp, holding potential -75 mV, five concentrations (2 nM to 10 μM), 0.1% BSA, pH 7.4, ~22 °C, each point average of 3–11 cells)",inhibition of NaV1.4 (hNaV1.4; [3]),IC50 (hNaV1.1),IC50 (hNaV1.2),"IC50 (hNaV1.5; QPatch 16x automated whole-cell patch-clamp, holding potential -105 mV, five concentrations (2 nM to 10 μM), 0.1% BSA, pH 7.4, ~22 °C, each point average of 3–11 cells)",inhibition of NaV1.5 (hNaV1.5; [3]),"visibility / accumulation in resected sciatic nerves (mouse sciatic nerve; i.v. 4 nmol Hs1a-FL alone, epifluorescence)","radiant efficiency of resected sciatic nerves (mouse sciatic nerve; i.v. Hs1a-FL 4 nmol (45 μM in 100 μL PBS), with or without Hs1a 12 nmol (120 μM), IVIS, ex 710/45 nm, em 800–820 nm, mean ± SD, n = 3 mice, Hs1a-FL vs co-injection unpaired t test p < 0.001)","nerve-to-muscle contrast (nerve and muscle; epifluorescence visualization of sciatic mouse nerves, abstract statement)","nerve-to-muscle ratio (nerve and muscle; i.v. Hs1a-FL 4 nmol with or without Hs1a 12 nmol (block), 30 min post-injection, epifluorescence, mean ± SD, PBS 2.90 ± 2.76)","radiant efficiency, brain ([1]; i.v. 4 nmol in 100 μL PBS, IVIS, ex 710/45 nm, em 800–820 nm, mean ± SD, n = 3, PBS group 0.001 ± 0.0005 × 10^7)","radiant efficiency, liver ([1]; i.v. 4 nmol in 100 μL PBS, IVIS, ex 710/45 nm, em 800–820 nm, mean ± SD, n = 3, PBS group 0.002 ± 0.001 × 10^7)","radiant efficiency, kidney ([1]; i.v. 4 nmol in 100 μL PBS, IVIS, ex 710/45 nm, em 800–820 nm, mean ± SD, n = 3, PBS group 0.005 ± 0.004 × 10^7)","liver accumulation ([1]; mouse, i.v. 4 nmol)",binding to NaV1.7 on the surface of human and mouse nerves (NaV1.7; abstract statement),"binding to NaV1.7 channels in vivo (NaV1.7; post-intravenous injection, mouse, blocked by excess dose of unlabeled Hs1a)",presence of Hs1a-FL signal in sciatic nerve by confocal microscopy [2]
CC(C)C[C@H](NC(=O)[C@H](CCCCN)NC(=O)CNC(=O)[C@H](CCCCN)NC(=O)[C@@H]1CSSC[C@@H]2NC(=O)[C@H](CCCCN)NC(=O)[C@H](CC(=O)O)NC(=O)[C@H](CC(N)=O)NC(=O)[C@H](CCCCN)NC(=O)[C@@H]3CCCN3C(=O)[C@H](CC(N)=O)NC(=O)[C@@H]3CSSC[C@H](NC(=O)[C@H](C(C)C)NC(=O)[C@H](CC(C)C)NC(=O)[C@H](CC(N)=O)NC(=O)[C@H](C)NC(=O)[C@H](CSSC[C@H](NC(=O)[C@H](CC(=O)O)NC(=O)[C@H](CC(N)=O)NC(=O)CN)C(=O)N[C@@H](CC(C)C)C(=O)NCC(=O)N[C@@H](Cc4ccccc4)C(=O)N[C@@H](Cc4c[nH]c5ccccc45)C(=O)N[C@@H](CO)C(=O)N[C@@H](C)C(=O)N3)NC2=O)C(=O)N[C@@H](CO)C(=O)N[C@@H](CO)C(=O)N[C@@H](CCCCN)C(=O)N[C@@H](Cc2c[nH]cn2)C(=O)N[C@@H](CCCCN)C(=O)N[C@@H](Cc2c[nH]c3ccccc23)C(=O)N1)C(=O)O [Hs1a],107 nM,low nanomolar affinity,low nanomolar range,> 3000 nM,did not inhibit,19.4 nM,82.2 nM,> 3000 nM,did not inhibit,–,–,–,–,–,–,–,–,–,–,–
"Cy7.5@GNDCLGFWSACNPKNDKCCANLVCSSKHKWCKGKL (disulfide) [Hs1a-FL, NIR-labeled version of Hs1a, Hs1a conjugated to Cy7.5 dye]",–,–,–,–,–,–,–,–,–,clearly visible,1.6 ± 0.3 × 10^5 [p/s/cm^2/sr]/[μW/cm^2],favorable nerve-to-muscle contrast,4.83 ± 8.73 and ~ 4,0.2 ± 0.1 × 10^7 [p/s/cm^2/sr]/[μW/cm^2],3.0 ± 2.0 × 10^7 [p/s/cm^2/sr]/[μW/cm^2],1.4 ± 1.1 × 10^7 [p/s/cm^2/sr]/[μW/cm^2],high liver accumulation,specific and stable binding,specifically bind to NaV1.7 channels in vivo,confirmed the presence of Hs1a-FL signal
